According to patent publication US20110306035A1, “Methods and Compositions for Detection of a Pathogen, Disease, Medical Condition, or Biomarker Thereof” (priority 2008, published 2011):

Key:
[1] = test system: meningococcus; assay: Meningococcus lysate spiking system (Camb2 cleavage); assay type: biochemical, Neisseria meningitides; conditions: 2,6-pyridinedicarboxylic acid 2.5 mM; lysate 3 ul
From the text: (§1) There have been no reports of co-infection of viral and bacterial meningitis. Thus, a test for viral meningitis infection implies a negative result for bacterial meningitis. However, CSF samples infected with bacterial meningitis may have background non-specific activity that leads to false positive results in tests for enterovirus, thereby confusing the results. Background non specific activity in CSF samples could be related to bacterial proteases that can cleave the substrate, leading to a positive signal. The most frequent bacterial meningitis found in CSF include: Streptococcus pneumonia, Neisseria meningitides (meningococc), Haemophilus influenza and Klebsiella pneumonia. Accordingly, Pneumococcus (Streptococcus pneumonia, two different strains 6B and 23F) and meningococcus (Neisseria meningitides) were spiked to simulate the background non specific activity observed in CSF samples and to identify inhibitors to reduce it. A total of more than 40 inhibitors from different groups of inhibitors were tested.
The experiment shown in FIG. 22B was performed in the presence of Echo recombinant protease (1:18), in the presence of meningococcus (lysate 3 ul) or in the presence of blood (10 ul). […]

[2] = test system: blood; conditions: 2,6-pyridinedicarboxylic acid 2.5 mM; blood 10 ul
[3] = molecular target: Echovirus 3C recombinant protease (Echovirus 30, UniProt Q9WN78); assay: Echovirus 3C recombinant protease activity with inhibitors or inhibitor cocktails (Camb2); assay type: biochemical
Sequence of Echovirus 3C recombinant protease (Q9WN78 1550-1732): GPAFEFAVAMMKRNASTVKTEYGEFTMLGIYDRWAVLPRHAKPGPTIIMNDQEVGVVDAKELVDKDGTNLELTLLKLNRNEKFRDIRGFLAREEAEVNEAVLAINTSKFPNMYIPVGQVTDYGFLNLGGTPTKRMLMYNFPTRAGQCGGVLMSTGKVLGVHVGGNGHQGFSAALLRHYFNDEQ
Method: Phosphoramidon is a strong inhibitor of many bacterial Metalloendoproteinases, thermolysin, and elastase, but a weak inhibitor of collagenase. […] Phosphoramidon was tested using the Echovirus 3C recombinant and pneumococcus (types 6B and 23F) spiking systems.
(§2) The experiment shown in FIG. 22A was performed in the presence of Echo recombinant protease (50 nM) or in the presence of two different strains of pneumococcus 6B and 23F (lysate 1 μl). The inhibitory effect was measured in the presence/absent of Phosphoramidon (20 uM).
The experiment shown in FIG. 22B was performed in the presence of Echo recombinant protease (1:18), in the presence of meningococcus (lysate 3 ul) or in the presence of blood (10 ul).
Enterovirus 3C protease (Echo), WBC lysate (corresponding to 2×10^3 cells per test), Pneomococc lysate (corresponding to 1×10^6 bacteria per test) and Meningococc lysate (corresponding to 1×10^8 bacteria per test) (5 ul each) were spiked into artificial-CSF (45 ul), followed by the addition of the indicated inhibitor cocktails (5 ul each): I8, I9a=I8+Phosphoramidon (90 μM), I9b=I8+2-6-pyridinedicarboxylic acid (2.5 mM) and I10=I8+Phosphoramidon+2-6-pyridinedicarboxylic acid. The samples with the indicated inhibitor cocktails were incubated at RT for 2.5 min followed by the addition of 50 ul 2× reaction buffer containing the substrate camb2 (final concentration 2 μM). […]

[4] = test system: Enterovirus 3C protease; assay: Enterovirus assay in clinical CSF samples (vs RT-PCR); assay type: biochemical; conditions: bacterial samples 23-25; new assay conditions
Method: CSF samples obtained from two clinical sites, were tested for presence of enterovirus according to the method of the invention but before the assay conditions were optimized. The samples were also tested with a combination of RT-PCR and other clinical parameters. […] Samples were considered hemolytic if red blood cell (RBC) count was above 100/ul (for the one set) or if the sample's color was reddish (for the other set, RBC count not provided).
Samples whose reaction rate exceeded the cutoff value were considered positive, and those below this value were considered negative.
Each measurement was performed by using 50 uL of CSF sample. 5 ul of inhibitor cocktail (I8) was added to the samples and incubated for 2.5 min. The reaction was initiated by the addition of 50 uL 2× reaction buffer (“2× RB”, 50 mM HEPES pH7.5, 1.8M Na2SO4, 300 mM NaCl, 10% Glycerol, 10 mM EDTA and 10 mM EGTA each) containing the substrate camb2 (final concentration 2 uM).
Thaw samples at room temperature for 30 min in a biological hood. • 2. Prepare assay layout according to the number of samples to be run in the BMG fluorimeter and the well composition shown in Table 54
Prepare sufficient amount of inhibitor cocktail I10 (150 ul for 24 wells). • 4. […] Add Echo protease to p.c. (positive control) wells. • 6. […] Add inhibitor cocktail to all wells. • 8. Add 50 ul 2× RB+substrate to all the wells. • 9. […]

[5] = test system: pneumococcus 23F; assay: Pneumococcus 23F lysate spiking system (Camb2 cleavage); assay type: biochemical, Streptococcus pneumonia
From the text: as §1, §2

[6] = test system: pneumococcus 6B; assay: Pneumococcus 6B lysate spiking system (Camb2 cleavage); assay type: biochemical, Streptococcus pneumonia
From the text: as §1, §2

[7] = Phosphoramidon 20 uM, lysate 1 μl
[8] = at least three independent experiments

| SMILES | inhibition of meningococcus activity [1] | inhibition of blood activity [2] | inhibition at 2500 µM [3] | effect on unspecific background activity of bacterial CSF samples [4] | inhibition at 20 µM ([3]; Phosphoramidon 20 uM, Echo recombinant protease 50 nM) | inhibition of pneumococcus activity [5, 7] | inhibition of pneumococcus activity [5, 8] | inhibition of pneumococcus activity [6, 7] | inhibition of pneumococcus activity [6, 8] |
| --- | --- | --- | --- | --- | --- | --- | --- | --- | --- |
| O=C(O)c1cccc(C(=O)O)n1 [2,6-pyridinedicarboxylic acid] | 81% | 0% | 4.5% |  |  |  |  |  |  |
| CC(C)C[C@H](NP(=O)(O)O[C@@H]1O[C@@H](C)[C@H](O)[C@@H](O)[C@H]1O)C(=O)N[C@@H](Cc1c[nH]c2ccccc12)C(=O)O [Phosphoramidon] |  |  |  | could not abolish | 7% | 80% | ~90% | 91% | ~90% |
